From patent US20140057829A1, “Citrullinated Histone H3 (Cit H3) in Septic Shock” (THE GENERAL HOSPITAL CORPORATION, priority 2011, published 2014)
Entries after “also recorded” stand apart in the source; their conditions may differ.

Legend:
histone H3 in serum [1] = assay: Serum histone H3 by Western blot in LPS-induced septic shock mice treated with or without SAHA; assay type: in vivo; settings: blood 3 h after LPS
Protocol: To assure that the data were reliable, independent serum samples were collected and analyzed. As in a previous study (Li et al., Shock. 2009; 32(5): 517-523), male C57B1/6J mice (n=9, 3/group) weighing 25-30 g (purchased from Jackson Labs (Bar Harbor, Me.)) were randomly divided into two groups: LPS control, and SAHA+LPS. Normal saline (10 μl/g body weight) or LPS (20 mg/kg) dissolved in normal saline was injected intraperitoneally. The mice were given DMSO (1 μl/g body weight) or SAHA (50 mg/kg) dissolved in DMSO intraperitoneally 2 hours (h) before, and then soon after injection of LPS. Sham mice (no LPS, no SAHA) were used as the control. Serum separated from these blood samples was saved at −80° C. and used for the current experiment. In the present study, a large dose (35 mg/kg) or a small dose (10 mg/kg) of LPS was administrated intraperitoneally. […] Survival rate was then recorded for over the next 7 days. […]
The samples were analyzed by Western blot with anti-histone H3 antibody. […] The primary antibody was detected by incubation with horseradish peroxidase-coupled second antibody (1:3,000 in PBST with 5% milk) at room temperature for 2 h. […] Films were developed using a standard photographic procedure and quantitative analysis of detected bands was carried out by densitometer scanning using VersaDoc Imaging System (BioRad Laboratories, Hercules, Calif.).

histone H3 in serum [2] = assay: iTRAQ screen for serum biomarkers in LPS-induced septic shock and SAHA treatment; assay type: in vivo; settings: LPS-induced septic shock; 5 h after first SAHA treatment, 3 h after LPS injection
Protocol: To identify biomarkers of septic shock and treatment, isobaric tag labeling for relative and absolute quantitation (iTRAQ) was performed as described in WO 2010/126635 (which is incorporated herein by reference) in sham (no LPS and no treatment), septic shock (3 h after LPS injection) and SAHA treated (5 h after the first SAHA treatment, and 3 h after LPS injection) animals. Several potential serum biomarkers in LPS-induced septic shock and treatment were found. One of them was histone H3, a chromatin protein in nucleus.

HL-60 granulocytes = assay: Western blots of H3, Ac H3 and Cit H3 in lysates and medium of LPS-stimulated HL-60 granulocytes; assay type: cell-based, human; settings: 3 h
Protocol: Neutrophils might be a source of serum histone H3 during sepsis. To test whether histone H3 deimination/citrullination is induced as part of the neutrophil response to bacterial endotoxin, HL-60 cells obtained from American Type Culture Collection (ATCC) were maintained in Iscove's modified DMEM medium (Invitrogen Life Technologies, Carlsbad, Calif.) supplemented with 20% fetal bovine serum (FBS). These cells were grown at 37° C. in a humidified incubator in 5% CO2 and 95% air, and differentiated into granulocytes by culturing the cells in medium containing 1 μM ATRA for 3 days. The ATRA-differentiated HL-60 granulocytes were treated with 4 μM calcium ionophore in medium containing 1.5 mM calcium chloride, and then incubated with LPS (100 ng/ml) in the presence or absence of SAHA (10 μM) over 3 h. Following incubation, medium was collected, and cell lysates were prepared. The medium and the lysates were tested for H3, Ac H3, Cit H3 and actin (internal control) by Western blots. To ensure there was no false positive data that may be produced from the medium with dead cells, the cells were carefully treated and a sham group was also set up as a control.

[3] = tested on: rodent models of LPS-induced septic shock; settings: rodent models of LPS-induced septic shock (Li et al. 2009, 2010); cited from earlier work
mice = assay: Survival of mice after small or large dose of LPS; assay type: in vivo; settings: for survival rate: 7 day observation
Protocol: To assure that the data were reliable, independent serum samples were collected and analyzed. As in a previous study (Li et al., Shock. 2009; 32(5): 517-523), male C57B1/6J mice (n=9, 3/group) weighing 25-30 g (purchased from Jackson Labs (Bar Harbor, Me.)) were randomly divided into two groups: LPS control, and SAHA+LPS. Normal saline (10 μl/g body weight) or LPS (20 mg/kg) dissolved in normal saline was injected intraperitoneally. The mice were given DMSO (1 μl/g body weight) or SAHA (50 mg/kg) dissolved in DMSO intraperitoneally 2 hours (h) before, and then soon after injection of LPS. Sham mice (no LPS, no SAHA) were used as the control. Serum separated from these blood samples was saved at −80° C. and used for the current experiment. In the present study, a large dose (35 mg/kg) or a small dose (10 mg/kg) of LPS was administrated intraperitoneally. All animals were housed in plastic cages and had access to chow and water throughout the experiment. The animals were kept at room temperature (24±2° C.) and exposed to alternative cycles of 12 h light and darkness. Survival rate was then recorded for over the next 7 days. Blood was collected from the orbital sinus (as described in Hoff, Lab Animal. 2000; 29(10): 47-53) at 3 h after LPS injection.
It has been reported that the effects of LPS on lethality and protein expression are dose-dependent (Barton and Jackson, Infect Immun. 1993; 61(4): 1496-1499; Haque et al., Pneumon. 2009; 22(2): 143-155). To determine whether serum levels of H3, Cit H3 and acetylated H3 were dependent on the LPS dose, the mice were injected with a small dose ([…]) or a large dose ([…]). The serum levels of all three histone H3 were then measured and correlated to mortality. Mice were randomly divided into three groups (n=10/group): (1) sham group (no LPS), (2) LPS small dose (SD) group, and (3) LPS large dose (LD) group. Blood was collected at 3 h after LPS injection and serum was prepared for immunoblotting.

serum Cit H3 and H3 = assay: Serum Cit H3, H3 and Ac H3 by Western blot after small or large dose of LPS; assay type: in vivo, mice; settings: 3 h after injection
Protocol: The samples were analyzed by Western blot with anti-histone H3 antibody. Western blot analysis was performed as follows. Proteins (about 100 μg per lane) were separated by sodium dodecyl sulphate-polyacrylamide gel electrophoresis (SDS-PAGE) on 15% polyacrylamide gels and transferred onto nitrocellulose membranes (Bio-Rad Laboratories, Hercules, Calif.). The membranes were blocked in 0.05% PBS-Tween (PBST) containing 5% milk (Bio-Rad Laboratories, Hercules, Calif.) and then incubated with the primary antibody at 4° C. overnight. The primary antibody was detected by incubation with horseradish peroxidase-coupled second antibody (1:3,000 in PBST with 5% milk) at room temperature for 2 h. The chemiluminescence detection was performed by using WesternLighting Chemiluminescence Reagent Plus (PerkinElmer LAS, Inc., Boston, Mass.). Films were developed using a standard photographic procedure and quantitative analysis of detected bands was carried out by densitometer scanning using VersaDoc Imaging System (BioRad Laboratories, Hercules, Calif.).
It has been reported that the effects of LPS on lethality and protein expression are dose-dependent (Barton and Jackson, Infect Immun. 1993; 61(4): 1496-1499; Haque et al., Pneumon. 2009; 22(2): 143-155). […] The serum levels of all three histone H3 were then measured and correlated to mortality. […]

TNF-α = assay: Serum TNF-α ELISA after small or large dose of LPS; assay type: in vivo, mice; settings: 3 h after endotoxin insult
Protocol: There is general agreement that the main pathogenic mediator in lethal septic shock is TNF-α (Beutler and Cerami, Annu Rev Immunol. 7: 625-55, 1989). To determine whether TNF-α can predict lethality of LPS-induced shock as well as Cit H3, blood was collected from sham, LPS (SD), and LPS (LD) groups at 3 h after LPS injection (n=5/group). Quantitative determination of TNF-α in the blood of mice was made using Quantikine Enzyme-Linked Immunosorbent Assay (ELISA) Kit (R&D Systems, Minneapolis, Minn.) according to manufacturer's instruction. The concentration of the cytokine was measured by optical densitometry at 450 nm in a SpectramaxPlus 384 microplate reader (Molecular Devices, Sunnyvale, Calif.). All of the analyses were performed in triplicates.

## O=C(CCCCCCC(=O)Nc1ccccc1)NO [SAHA, suberoylanilide hydroxamic acid]
Histone H3 in serum [1]; SAHA 50 mg/kg i.p. 2 h before and soon after LPS 20 mg/kg
  serum histone H3 (Western blot): no histone H3 was detected
Histone H3 in serum [2]
  histone H3 in serum (iTRAQ): decreased histone H3 in serum dramatically
HL-60 granulocytes; SAHA 10 μM + LPS 100 ng/ml
  Cit H3 in cultured cell medium (secretion): decreases; also recorded: no detectable
  H3 in cultured cell medium: no detectable
  acetylated H3 in cell lysates: increase
  expression of Cit H3 in cell lysates: decreases; also recorded: significantly reduced
[3]
  survival: improves survival

## lipopolysaccharide [LPS]
Histone H3 in serum [1]; LPS 20 mg/kg i.p. without SAHA
  serum histone H3 (Western blot): a histone H3 band was clearly observed
HL-60 granulocytes; LPS 100 ng/ml
  Cit H3 in cultured cell medium: more
  H3 in cultured cell medium: more
HL-60 granulocytes; LPS 100 ng/ml, compared to sham
  Cit H3 in cell lysates: increase
mice; LPS LD (35 mg/kg i.p.)
  average survival time: about 20 h
  earliest time of death: ~16 h
  longest survival time: 23 h
  time by which all mice died: less than 23 h
  survival rate: 0%
mice; LPS LD (35 mg/kg i.p.), n = 10
  Mice died within 23 h: 10
mice; LPS SD (10 mg/kg i.p.)
  average survival time: ~146 h
  earliest time of death: 27 h
  survival rate: 90%
mice; LPS SD (10 mg/kg i.p.), 168 h observation
  longest survival time: 168 h
mice; LPS SD (10 mg/kg i.p.), n = 10
  Mice died within 23 h: None
  Mice survived over 168 h: 9
Serum Cit H3 and H3; LPS SD (10 mg/kg i.p.)
  Serum H3: increase
Serum Cit H3 and H3; all animals (LPS SD and LD)
  serum Ac H3: No Ac H3 was detected
TNF-α; LPS LD (35 mg/kg)
  serum TNF-α: 792 pg/mL
TNF-α; LPS SD (10 mg/kg)
  serum TNF-α: 741 pg/mL
